Experimental findings from patent US20160145242A1, “PHENYLIMIDAZOLE DERIVATIVE, AND THERAPEUTIC MEDICINE OR PREVENTIVE MEDICINE FOR INFLAMMATORY DISEASE, ETC” (NIPPON SODA CO., LTD., priority 2013, published 2016) are described below.

Broadly, the inhibition is the share of the control response that was lost under treatment.

In experiment [1] the test system is mouse model of retinal light disorders. Kind of experiment: Retinal light disorder model test (ONL thickness). It counts as in vivo. The settings on record: BALB/cCr male mouse, 30 mg/kg oral 30 minutes before 2 hours white light, eyes taken after 4 days. As for the experimental part:
(Retinal Light Disorder Model Test)
The usefulness (improvement rate with respect to retinal light disorders) of the compound of the invention was evaluated using a mouse model of retinal light disorders, generally used as a model of retinal light disorders, (Investigative Ophthalmology & Visual Science, 2002; vol. 43; pp. 1162 to 1167). Here, the improvement rate with respect to the retinal light disorders was calculated based on the thickness of an outer nuclear layer (hereinafter, referred to as “ONL”), which is strongly interfered especially by light application among a retinal cell layers, in a tissue specimen of a perpendicular surface of an eyeball.
Moreover, in the present test, the ONL of a light application group to which only a base was administered was degraded to 30% to 50% of a normal light group.
A test compound was dissolved or suspended in a solvent (1% (w/v) methyl cellulose aqueous solution) and then an administration liquid was prepared so that the test compound to be 30 mg/kg body weight. The dose was set to 10 ml/kg body weight.
A 5-week-old BALB/cCr-based male mouse (weight of approximately 20 g) was bred in a dark place for 48 hours. Subsequently, the test compound administration liquid was orally administered (30 mg/kg). After 30 minutes, […] of white light was continuously applied to the mouse for 2 hours. Next, the mouse was bred in a breeding room with 50 lux of light for 4 days.
An anesthetic (secobarbital sodium) was intraperitoneally administered to anesthetize the mouse and then the mouse was exsanguinated to die. The top portion of the right eyeball was marked with a thread and the eyeball was extracted. […]
The ONL thickness in the tissue specimen was measured for every 200 μm between the optic nerve papilla to where upwardly spaced by 1 mm from the optic nerve papilla using Lumina Vision. The area (AUC) from the optic nerve papilla to where upwardly spaced by 1 mm from the optic papilla in the graph was calculated as an ONL area. […]

The target of experiment [2] is T1, guinea pig lung-derived leukotriene A4 hydrolase (Cavia porcellus, UniProt P19602).
T1 construct: guinea pig lung-derived leukotriene A4 hydrolase; from tissue; host or cells: Dunkin-Hartley guinea pig lung
T1 sequence (P19602 1-611): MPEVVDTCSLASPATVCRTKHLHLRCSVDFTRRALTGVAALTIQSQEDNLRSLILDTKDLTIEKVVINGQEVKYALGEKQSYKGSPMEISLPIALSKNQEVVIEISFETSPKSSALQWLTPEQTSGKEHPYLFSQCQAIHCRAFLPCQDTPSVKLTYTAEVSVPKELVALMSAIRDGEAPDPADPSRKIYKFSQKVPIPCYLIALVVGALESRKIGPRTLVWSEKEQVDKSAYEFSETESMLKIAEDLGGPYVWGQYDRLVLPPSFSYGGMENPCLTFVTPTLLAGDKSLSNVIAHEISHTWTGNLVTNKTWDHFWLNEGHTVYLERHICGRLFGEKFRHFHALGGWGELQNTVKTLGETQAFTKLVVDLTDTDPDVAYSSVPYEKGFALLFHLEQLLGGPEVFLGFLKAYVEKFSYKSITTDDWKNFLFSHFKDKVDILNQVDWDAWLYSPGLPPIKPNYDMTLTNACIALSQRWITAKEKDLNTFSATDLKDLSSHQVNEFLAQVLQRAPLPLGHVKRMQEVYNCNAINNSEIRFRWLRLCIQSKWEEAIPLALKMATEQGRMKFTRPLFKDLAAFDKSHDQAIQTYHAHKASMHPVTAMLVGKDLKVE
Kind of experiment: Leukotriene A4 hydrolase activity inhibitory action. Particulars: read-out: leukotriene A4 hydrolase activity inhibition rate. The experiment is classed as biochemical. The procedure: The inhibitory action of the compound according to the present invention with respect to the activity of the present enzyme was examined using guinea pig lung-derived leukotriene A4 hydrolase.
Dunkin-Hartley guinea pig lung-derived leukotriene A4 hydrolase was reacted with […] of leukotriene A4 and the amount of leukotriene B4 which was a reaction product was measured by an enzyme-linked immunosorbent assay. 3 μM of the compound of the present invention dissolved in dimethyl sulfoxide was added to the reaction system and the inhibition rate of leukotriene B4 generation (leukotriene A4 hydrolase activity inhibition rate) was measured.

In the case of `CC(=O)N1CCN(c2ccc(N)c(-n3ccnc3)c2)CC1` [Compound 1-1, 4-acetyl-1-(4-amino-3-imidazole-1-yl-phenyl)piperazine], the “ONL thickness improvement rate” value in experiment [1] came out at 100.6%. For the same molecule, the inhibition at 3 µM in experiment [2] is 14%.
